System: gut microbiota
Assay: Gut (cecal) microbiota analysis by 16S rRNA sequencing
Assay type: in vivo, mice
Description: Fresh cecal samples from 24 (n = 6 per group) mice were collected at 1, 8 and 30 h after oral administration of 500 mg·kg^−1 MHO7 meanwhile control group was collected at 8 h after oral the same volume corn oil, respectively. All of the cecal samples were collected in sterile environments and containers, snap-frozen in liquid nitrogen, and then stored at −80 °C.
Microbial DNA was extracted from 24 cecal samples using the E.Z.N.A.® soil DNA Kit (Omega Bio-tek, Norcross, GA, USA) according to manufacturer’s protocols. The final DNA concentration and purification were determined by NanoDrop 2000 UV-vis spectrophotometer (Thermo Scientific, Wilmington, DE, USA), and DNA quality was checked by 1% agarose gel electrophoresis. The V3-V4 hypervariable regions of the bacteria 16S rRNA gene were amplified with primers 338F (5’- […]-3’) and 806R (5’-[…]-3’) by thermocycler PCR system (GeneAmp 9700, ABI, Foster City, CA, USA). The PCR reactions were conducted using the following program: 3 min of denaturation at 95 °C; 27 cycles of 30 s at 95 °C, 30 s for annealing at 55 °C, and 45 s for elongation at 72 °C; and a final extension at 72 °C for 10 min. PCR reactions were performed in triplicate 20 μL mixture containing 4 μL of 5 × FastPfu Buffer, 2 μL of 2.5 mM·L^−1 dNTPs, 0.8 μL of each primer (5 μM·L^−1), 0.4 μL of FastPfu Polymerase, and 10 ng of template DNA. The resulted PCR products were extracted from a 2% agarose gel and further purified using the AxyPrep DNA Gel Extraction Kit (Axygen Biosciences, Union City, CA, USA) and quantified using QuantiFluor ™ -ST (Promega, Madison, […], USA) according to the manufacturer’s protocol.
Purified amplicons were pooled in equimolar and paired-end sequenced (2 × 300) on an Illumina MiSeq platform (Illumina, San Diego, CA, USA) according to the standard protocols by Majorbio Bio-Pharm Technology Co. Ltd. (Shanghai, China).
Raw fastq files were quality-filtered by Trimmomatic and merged by FLASH according to the following criteria: (i) The reads were truncated at any site receiving an average quality score < 20 over a 50 bp sliding window. (ii) Sequences whose overlap was longer than 10 bp were merged according to their overlap with mismatch no more than 2 bp. (iii) Sequences of each sample were separated according to barcodes (exactly matching) and Primers (allowing 2 nucleotide mismatching), and reads containing ambiguous bases were removed. Operational taxonomic units (OTUs) were clustered using UPARSE (version 7.1, http://drive5.com/uparse/) at a 97% similarity level with a novel “greedy” algorithm that performs chimera filtering and OTU clustering simultaneously. The taxonomy of each 16S rRNA gene sequence was analyzed by RDP Classifier algorithm (http://rdp.cme.msu.edu/) against the Silva (SSU123) 16S rRNA database using confidence threshold of 70%.

[1] = MHO7-1h group, cecal, oral 500 mg·kg^−1
[2] = MHO7-8h group, cecal, oral 500 mg·kg^−1

CC(C)=C/C=C/[C@H](C)[C@H]1CC[C@]2(C)C[C@@H]3C(C)=CC(=O)[C@H]3/C(C=O)=C\C[C@@H]12 [MHO7, 6-epi-ophiobolin G]
richness, diversity, OTU number of gut microbiome vs control (MHO7-1 h group): no significant difference | Relative abundance, class Bacilli [1]: 10.08±7.69% | Relative abundance, class Clostridia [1]: 38.58 ± 11.1% | Relative abundance, class Mollicutes [1]: 0.46±0.25% | Relative abundance, class Verrucomicrobiae [1]: 0.0019±0.002% | Relative abundance, family Bacteroidales_S24-7_group [1]: 33.99±6.67% | Relative abundance, family Lachnospiraceae [1]: 27.23±10.42% | Relative abundance, family Lactobacillaceae [1]: 10.05±7.69% | Relative abundance, family Rikenellaceae [1]: 7.09±0.86% | Relative abundance, family Ruminococcaceae [1]: 10.04±1.97% | Relative abundance, family Verrucomicrobiaceae [1]: 0.0019±0.0021% | Relative abundance, genus Anaeroplasma [1]: 0.12±0.11% | Relative abundance, genus Coprococcus_1 [1]: 0.19±0.10% | Relative abundance, genus Family_XIII_AD3011_group [1]: 0.067±0.041% | Relative abundance, genus Lachnoclostridium [1]: 0.51±0.21% | Relative abundance, genus Lactobacillus [1]: 10.05±7.69% | Relative abundance, genus Papillibacter [1]: 0.0062±0.0066% | Relative abundance, genus Peptococcus [1]: 0.010±0.0061% | Relative abundance, genus Prevotellaceae_NK3B31_group [1]: 0.46±0.31% | Relative abundance, genus Prevotellaceae_UCG-001 [1]: 0.78±0.51% | Relative abundance, genus Rikenellaceae_RC9_gut_group [1]: 2.82±0.76% | Relative abundance, genus Ruminiclostridium [1]: 0.78±0.59% | Relative abundance, genus Ruminiclostridium_5 [1]: 0.34±0.14% | Relative abundance, genus Ruminiclostridium_9 [1]: 0.76±0.29% | Relative abundance, genus Ruminococcaceae_NK4A214_group [1]: 0.076±0.024% | Relative abundance, genus Ruminococcaceae_UCG-009 [1]: 0.066±0.050% | Relative abundance, genus Ruminococcaceae_UCG-010 [1]: 0.12±0.046% | Relative abundance, genus Ruminococcaceae_UCG-014 [1]: 2.73±0.93% | Relative abundance, genus Ruminococcus_1 [1]: 1.53±1.04% | Relative abundance, genus Streptococcus [1]: 0.023±0.0050% | Relative abundance, genus [Eubacterium]_coprostanoligenes_group [1]: 0.13±0.12% | Relative abundance, genus [Eubacterium]_ventriosum_group [1]: 0.13±0.089% | Relative abundance, genus g__norank_f__Bacteroidales_S24-7_group [1]: 33.99±6.67% | Relative abundance, genus g__norank_f__Christensenellaceae [1]: 0.034±0.014% | Relative abundance, genus g__norank_f__Lachnospiraceae [1]: 6.456±2.68% | Relative abundance, genus g__norank_f__Ruminococcaceae [1]: 0.31±0.22% | Relative abundance, genus norank_o__Mollicutes_RF9 [1]: 0.34±0.17% | Relative abundance, order Anaeroplasmatales [1]: 0.12±0.11% | Relative abundance, order Bacillales [1]: 0.0000% | Relative abundance, order Clostridiales [1]: 38.54±11.15% | Relative abundance, order Lactobacillales [1]: 10.10±7.65% | Relative abundance, order Mollicutes_RF9 [1]: 0.33±0.16% | Relative abundance, order Verrucomicrobiales [1]: 0.0022±0.0027% | Relative abundance, phylum Deferribacteres [1]: 0.14±0.12% | Relative abundance, phylum Proteobacteria [1]: 0.18±0.045% | Relative abundance, phylum Saccharibacteria [1]: 0.47±0.28% | Relative abundance, phylum Tenericutes [1]: 0.46±0.25% | gut community diversity (Shannon index) vs control (MHO7-8 h group, OTU level, p < 0.05): decreased significantly | amount of OTUs vs control (MHO7-8 h group, p < 0.001): remarkable reduction | gut community richness (Sobs index) vs control (MHO7-8 h group, p < 0.01): remarkable reduction | Relative abundance, class Bacilli [2]: 11.49±12.09% | Relative abundance, class Clostridia [2]: 28.98 ± 20.11% | Relative abundance, class Mollicutes [2]: 0.0075±0.0048% | Relative abundance, class Verrucomicrobiae [2]: 0.80±1.18% | Relative abundance, family Bacteroidales_S24-7_group [2]: 33.65±5.47% | Relative abundance, family Lachnospiraceae [2]: 21.66±15.88% | Relative abundance, family Lactobacillaceae [2]: 11.34±12.11% | Relative abundance, family Rikenellaceae [2]: 3.66±2.13% | Relative abundance, family Ruminococcaceae [2]: 6.20±4.57% | Relative abundance, family Verrucomicrobiaceae [2]: 0.80±1.18% | Relative abundance, genus Coprococcus_1 [2]: 0.21±0.17% | Relative abundance, genus Family_XIII_AD3011_group [2]: 0.0069±0.0077% | Relative abundance, genus Lachnoclostridium [2]: 0.81±0.61% | Relative abundance, genus Lactobacillus [2]: 11.34±12.11% | Relative abundance, genus Papillibacter [2]: 0.0025±0.0061% | Relative abundance, genus Peptococcus [2]: 0.0050±0.010% | Relative abundance, genus Prevotellaceae_NK3B31_group [2]: 2.54±2.44% | Relative abundance, genus Prevotellaceae_UCG-001 [2]: 4.09±3.41% | Relative abundance, genus Rikenellaceae_RC9_gut_group [2]: 0.088±0.089% | Relative abundance, genus Ruminiclostridium [2]: 0.36±0.31% | Relative abundance, genus Ruminiclostridium_5 [2]: 0.21±0.21% | Relative abundance, genus Ruminiclostridium_9 [2]: 0.60±0.59% | Relative abundance, genus Ruminococcaceae_NK4A214_group [2]: 0.023±0.021%

Reference: paper PMC6950057, “Toxicity, Pharmacokinetics, and Gut Microbiome of Oral Administration of Sesterterpene MHO7 Derived from a Marine Fungus” (Marine Drugs, 2019)
